The target of one experiment is T1, Aminopeptidase N (Plasmodium falciparum FcB1/Columbia, UniProt O96935).
T1 sequence (O96935 whole entry): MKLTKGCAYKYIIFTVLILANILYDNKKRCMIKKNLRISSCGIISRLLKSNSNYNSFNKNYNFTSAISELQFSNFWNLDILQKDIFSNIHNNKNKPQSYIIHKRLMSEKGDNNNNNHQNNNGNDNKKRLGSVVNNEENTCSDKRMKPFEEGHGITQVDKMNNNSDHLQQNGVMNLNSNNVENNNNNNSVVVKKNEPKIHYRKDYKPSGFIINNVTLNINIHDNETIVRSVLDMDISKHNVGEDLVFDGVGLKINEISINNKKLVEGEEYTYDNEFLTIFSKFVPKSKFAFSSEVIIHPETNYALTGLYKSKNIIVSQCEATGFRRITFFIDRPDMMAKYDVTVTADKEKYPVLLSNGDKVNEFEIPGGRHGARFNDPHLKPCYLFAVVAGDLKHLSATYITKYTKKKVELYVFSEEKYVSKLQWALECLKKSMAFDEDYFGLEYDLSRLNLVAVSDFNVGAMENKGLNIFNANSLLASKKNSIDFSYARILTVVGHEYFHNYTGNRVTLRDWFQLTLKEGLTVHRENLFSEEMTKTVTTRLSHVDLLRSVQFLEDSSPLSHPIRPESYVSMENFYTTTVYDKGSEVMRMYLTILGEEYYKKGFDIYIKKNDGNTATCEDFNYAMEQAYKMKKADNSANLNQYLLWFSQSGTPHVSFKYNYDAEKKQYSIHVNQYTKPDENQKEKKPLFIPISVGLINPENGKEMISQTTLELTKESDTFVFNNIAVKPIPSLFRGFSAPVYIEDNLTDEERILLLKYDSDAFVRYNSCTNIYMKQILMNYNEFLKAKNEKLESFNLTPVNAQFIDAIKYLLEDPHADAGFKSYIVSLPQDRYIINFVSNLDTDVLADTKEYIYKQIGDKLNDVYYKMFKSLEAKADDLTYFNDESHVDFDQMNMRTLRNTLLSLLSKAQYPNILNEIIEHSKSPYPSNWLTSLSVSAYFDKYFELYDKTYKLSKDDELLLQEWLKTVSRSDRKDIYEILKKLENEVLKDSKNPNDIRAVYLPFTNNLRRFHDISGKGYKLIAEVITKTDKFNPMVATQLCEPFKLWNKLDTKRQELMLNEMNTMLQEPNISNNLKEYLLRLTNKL
In words: malaria alanyl aminopeptidase activity blockers – biochemical, fluorogenic H-Leu-NHMec substrate, 1536-well (AID 1445). Also on record: species or system Plasmodium falciparum 3D7, 3D7.

The target in experiment [1] is T2, Zinc finger protein mex-5 (Caenorhabditis elegans, UniProt Q9XUB2).
T2 sequence (Q9XUB2 whole entry): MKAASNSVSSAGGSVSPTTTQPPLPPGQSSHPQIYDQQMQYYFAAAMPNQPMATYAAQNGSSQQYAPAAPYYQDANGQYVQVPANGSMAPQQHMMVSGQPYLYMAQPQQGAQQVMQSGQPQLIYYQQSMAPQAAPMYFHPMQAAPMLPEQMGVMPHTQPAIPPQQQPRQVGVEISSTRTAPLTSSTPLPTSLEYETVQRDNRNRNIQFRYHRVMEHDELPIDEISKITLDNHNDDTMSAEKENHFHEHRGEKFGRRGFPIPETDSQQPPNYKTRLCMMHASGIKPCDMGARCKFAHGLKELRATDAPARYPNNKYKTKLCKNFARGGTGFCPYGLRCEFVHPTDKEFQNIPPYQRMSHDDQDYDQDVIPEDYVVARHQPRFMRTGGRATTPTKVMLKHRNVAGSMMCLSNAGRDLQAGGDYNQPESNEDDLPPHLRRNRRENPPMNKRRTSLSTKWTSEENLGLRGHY
Briefly: potency of MEX-5 RNA-binding blockers – biochemical, C. elegans, fluorescence polarization, dose response (AID 1960). (In general: In fluorescence polarisation assays a small probe gives low polarisation when free and higher when bound to something large.)

Experiment [2] addresses T3, RNA-binding protein pos-1 (Caenorhabditis elegans, UniProt G5EF15).
T3 sequence (G5EF15 whole entry): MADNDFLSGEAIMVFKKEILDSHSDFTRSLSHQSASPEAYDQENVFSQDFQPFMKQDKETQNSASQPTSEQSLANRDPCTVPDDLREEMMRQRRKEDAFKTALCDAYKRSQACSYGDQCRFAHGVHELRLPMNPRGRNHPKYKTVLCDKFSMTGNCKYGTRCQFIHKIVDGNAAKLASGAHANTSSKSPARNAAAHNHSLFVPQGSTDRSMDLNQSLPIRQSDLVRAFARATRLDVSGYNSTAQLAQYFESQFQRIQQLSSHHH
In words: disruptors of C. elegans POS-1 RNA interaction – biochemical, fluorescence polarization, dose response (AID 1964).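 Also: purified POS-1 fused to maltose binding protein made in E. coli; potency of compounds blocking POS-1 binding to fluorescent RNA.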

In a further experiment the target is T4, Streptokinase A (Streptococcus pyogenes serotype M1, UniProt P10520).
T4 sequence (P10520 whole entry): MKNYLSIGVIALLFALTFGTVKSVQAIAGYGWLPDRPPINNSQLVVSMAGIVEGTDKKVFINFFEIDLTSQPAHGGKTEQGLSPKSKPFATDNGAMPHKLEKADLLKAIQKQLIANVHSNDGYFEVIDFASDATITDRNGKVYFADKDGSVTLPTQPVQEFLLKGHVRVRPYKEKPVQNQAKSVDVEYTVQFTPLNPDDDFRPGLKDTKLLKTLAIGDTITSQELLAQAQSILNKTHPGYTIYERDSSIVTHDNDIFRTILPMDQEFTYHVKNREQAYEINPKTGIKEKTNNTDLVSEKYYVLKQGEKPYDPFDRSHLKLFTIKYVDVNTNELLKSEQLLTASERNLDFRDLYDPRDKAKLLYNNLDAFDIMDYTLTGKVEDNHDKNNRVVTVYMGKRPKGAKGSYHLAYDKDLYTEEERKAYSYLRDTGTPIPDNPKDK
Briefly: viability-normalized secreted streptokinase activity reduction – plasminogen activation absorbance, OD405, dose response (AID 1914).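 Also: secreted streptokinase activity via plasminogen activation per viability signal from cell pellet.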 The class given is functional, Streptococcus pyogenes M1 GAS.

The next experiment relates to Streptococcus. Briefly: GAS UMAA2166 growth inhibition – luminescence, BacTiterGlo, counter-screen for streptokinase expression inhibitor project, dose response (AID 1915).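 Also: potency for reduction of bacterial viability or growth.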 It counts as functional, organism-based.
Experiment [3] concerns Streptococcus sp. 'group A'. In words: Streptococcus pyogenes SK(-)GAS viability under kanamycin – luminescence, BacTiterGlo, confirmation, counter-screen for streptokinase expression inhibitor project, dose response (AID 1900). It counts as functional, organism-based.
For experiment [4], the target named is T5, Short transient receptor potential channel 4 (Mus musculus, UniProt Q9QUQ5).
T5 sequence (Q9QUQ5 whole entry): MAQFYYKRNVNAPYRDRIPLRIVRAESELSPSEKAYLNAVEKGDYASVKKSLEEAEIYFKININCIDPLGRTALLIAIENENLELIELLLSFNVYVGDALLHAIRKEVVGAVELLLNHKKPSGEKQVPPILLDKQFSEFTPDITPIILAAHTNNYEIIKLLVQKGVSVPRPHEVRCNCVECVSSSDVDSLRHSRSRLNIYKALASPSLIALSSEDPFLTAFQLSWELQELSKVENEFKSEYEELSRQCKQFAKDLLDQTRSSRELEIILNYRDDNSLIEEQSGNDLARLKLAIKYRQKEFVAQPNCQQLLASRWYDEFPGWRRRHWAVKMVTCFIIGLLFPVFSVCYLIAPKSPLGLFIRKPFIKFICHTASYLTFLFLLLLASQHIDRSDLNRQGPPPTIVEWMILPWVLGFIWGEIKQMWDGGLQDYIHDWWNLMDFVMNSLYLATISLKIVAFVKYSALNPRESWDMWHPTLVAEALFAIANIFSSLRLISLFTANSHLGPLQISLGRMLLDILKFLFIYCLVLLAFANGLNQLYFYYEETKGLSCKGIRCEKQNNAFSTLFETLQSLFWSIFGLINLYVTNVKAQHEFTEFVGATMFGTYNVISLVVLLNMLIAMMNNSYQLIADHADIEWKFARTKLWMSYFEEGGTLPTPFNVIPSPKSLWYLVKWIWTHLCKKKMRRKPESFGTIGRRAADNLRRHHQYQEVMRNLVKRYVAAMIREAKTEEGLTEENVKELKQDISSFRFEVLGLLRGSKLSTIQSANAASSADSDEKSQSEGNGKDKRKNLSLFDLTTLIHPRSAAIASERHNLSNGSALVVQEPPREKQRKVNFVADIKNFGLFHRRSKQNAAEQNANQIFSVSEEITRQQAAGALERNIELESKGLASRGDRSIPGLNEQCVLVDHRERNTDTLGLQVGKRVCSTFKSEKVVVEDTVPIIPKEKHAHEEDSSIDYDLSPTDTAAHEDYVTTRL
Briefly: calcium entry via TRPC4 opening agents – cell-based, HEK293 TRPC4/mu-opioid, Fluo-4 calcium, dose response (AID 434937). The class given is functional.

The nature of experiment [5]: cells. It counts as functional, cell-based.
The nature of experiment [6]: cells. The class given is functional, cell-based. This is another data set of the same source.
The nature of experiment [7]: MIN6 cell viability loss – mouse insulinoma, cytotoxicity control, dose response (AID 2122).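 Also: confirmatory high-throughput counterscreen run to flag cytotoxic compounds.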 The class given is functional.
The nature of experiment [8]: decrease of insulin promoter-GFP reporter – imaging, high-content screening, mouse beta cells (AID 1628). The conditions noted are these: MIN6. It counts as functional.
The next experiment deals with T6, Coagulation factor XII (Homo sapiens, UniProt P00748).
T6 sequence (P00748 whole entry): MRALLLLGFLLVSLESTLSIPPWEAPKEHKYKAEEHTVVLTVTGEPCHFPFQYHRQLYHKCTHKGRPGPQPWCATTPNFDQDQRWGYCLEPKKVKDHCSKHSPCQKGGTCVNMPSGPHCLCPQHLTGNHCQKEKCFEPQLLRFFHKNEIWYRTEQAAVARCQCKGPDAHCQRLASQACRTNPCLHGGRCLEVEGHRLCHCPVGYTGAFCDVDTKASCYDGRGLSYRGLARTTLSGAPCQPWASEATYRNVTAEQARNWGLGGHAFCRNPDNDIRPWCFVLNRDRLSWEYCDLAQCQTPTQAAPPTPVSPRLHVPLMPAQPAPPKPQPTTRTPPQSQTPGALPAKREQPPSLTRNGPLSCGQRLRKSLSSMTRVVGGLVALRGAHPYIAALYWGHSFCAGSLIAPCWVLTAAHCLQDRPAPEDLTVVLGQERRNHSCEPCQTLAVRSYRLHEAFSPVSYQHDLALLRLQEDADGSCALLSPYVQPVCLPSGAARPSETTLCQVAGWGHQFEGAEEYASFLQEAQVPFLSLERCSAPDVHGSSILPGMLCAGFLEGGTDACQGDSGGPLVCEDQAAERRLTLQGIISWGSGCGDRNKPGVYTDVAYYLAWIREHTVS
It counts as functional.

Experiment [9] is described as follows: blockers of HIV-1 envelope-mediated cell-cell fusion – cherry-pick, dose response (AID 652057). The class given is functional, cell-based.
A short description of experiment [10]: HIV-1 AD8 envelope cell-cell fusion blockers – cherry-pick, dose response (AID 652062).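 Also: luciferase signal from cell-cell fusion driven by HIV-1 clade B AD8 Env; potency is for inhibitors of fusion seen as a drop in luminescence.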 It counts as functional, cell-based.
Experiment [11] is described as follows: blockers of HIV-1 ZM109 envelope-driven cell-cell fusion – HeLa effector, CEM target cells, luciferase, cherry-pick, dose response (AID 652058).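 Also: luciferase signal from HIV-1 Env mediated cell-cell fusion of effector and target cells.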 The class given is functional, cell-based.
Experiment [12] can be described thus: viability loss in CEM21 cells – cell-based, CellTiter-Glo luminescence, cherry-picked, cytotoxicity control for viral fusion inhibitor project, dose response (AID 652042).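 Also: potency for signal decrease meaning cytotoxicity.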 It counts as functional. (In ATP-based viability assays light output follows the ATP content of the culture.)
Experiment [13] can be described thus: off-target signal loss in HeLa-CEM21 co-culture – HeLa F-luc CTL cells, cherry-picked, counter-screen for HIV-1 Env fusion inhibitor project, dose response (AID 652040).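 Also: potency for signal decrease marking cytotoxic or nonspecific inhibition.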 It counts as functional, cell-based. On the technique in general: Counterscreens check selectivity or assay interference.

Active and inactive are the calls of the source. A value given as a limit tells only on which side of the number the result lay.

Consider `O=C(O)c1cc(-c2ccc(/C=N/Nc3ccc([N+](=O)[O-])cn3)o2)ccc1Cl`, for which, at Aminopeptidase N, the IC50 was 12.7 µM (active). Also, the EC50 in [1] is 6.29 µM (active); in [2], 31 µM (active).

`COc1cc(OC)cc(C(=O)NC(=S)NNC(=O)Cc2cccs2)c1`: the EC50 was > 150 µM (not active) on Streptokinase A, 11.6 µM (active) in the experiment on Streptococcus, 0.814 µM (active) in experiment [3] and 10.6 µM (active) in experiment [4].

Consider `Nc1nc2nc(-c3cccs3)cc(C(F)(F)F)n2n1`, for which the IC50 at Aminopeptidase N was 61.4 µM (active). In addition, the concentration for a half-maximal effect (EC50) in the experiment “cells [5]” and in the experiment “cells [6]” was > 350 µM (not active) in each case.

In the case of `CN(C)C(CNC(=O)c1cccc(S(=O)(=O)N(C)C)c1)c1ccccc1` (configuration not stated), the EC50 in experiment [4] was 0.299 µM (active).

Regarding `CN(C)C=O.Cc1ccc(-c2cc(-c3nnc(S)o3)c3ccccc3n2)cc1`, at Aminopeptidase N, the IC50 was 35.5 µM (active).

For `Cc1cc(O)nc(N/N=C/c2cc(C)n(CC(F)(F)F)c2C)n1`, the IC50 in experiment [7] was 11.2 µM (inactive); in experiment [8], 2 µM (active).

Take `Cc1sc2nc(-c3ccccn3)nc(O)c2c1-c1ccccc1`: the half-maximal inhibitory concentration (IC50) was 5.43 µM (active) in [7] and 4.11 µM (active) in [8]. Also, the EC50 is 23.9 µM (active) in the experiment with Streptococcus and 1.25 µM (active) in experiment [3].

`O=[N+]([O-])c1ccc(N2CCNCC2)c2ncccc12`: the EC50 in [4] was 0.0373 µM (active).

In the case of `COC(=O)c1sccc1NC(=O)/C=C/c1c(Cl)cccc1Cl`, the IC50 on Coagulation factor XII is > 50 µM (inactive).

With `CN(C)c1ccc(C(=O)NN2C(=O)c3ccccc3C2=O)cc1`, the IC50 on Coagulation factor XII was > 50 µM (inactive).

Regarding `Cc1ccc(S(=O)(=O)N(CC(=O)NCCC2=CCCCC2)Cc2ccccc2)cc1`, the AC50 in experiment [9] is 5.01 µM (active); in experiment [10], 10.2 µM (active); in experiment [11], 10.7 µM (active); in experiment [12], 41.1 µM (active); in [13], 7.25 µM (active). For the same molecule, at Coagulation factor XII, the IC50 is > 50 µM (inactive).

Usually IC50 stands for the point on the concentration scale where inhibition reaches its midpoint. Broadly, the EC50 is the concentration that produces a half-maximal response. The term AC50 denotes the midpoint of the concentration-response curve, whichever way the signal moves.
